Measurements published in PubChem BioAssay (NCI).
“And” between values parts separate entries of the source, which are not always exact repeats. Equal entries are not always repeated.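 Where inhibition never reached the appropriate level, the endpoint shown equals the highest concentration tested. Otherwise, values were interpolated linearly from a five-concentration, 48-hour dose response in 96-well plates. GI50 = concentration required for 50% inhibition of growth. TGI is the concentration that stops growth completely.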

System: KM12 colon
Assay: DTP human tumour cell line panel, 48 h

`Cc1ccc(NC(=O)Nc2ccc(-c3cccnc3)cc2N2CCC(CO)CC2)cc1` gave a GI50 of 1.25 µM.

For `Cc1ccc(NC(=O)Nc2ccc(-c3cccnc3)cc2N2CCC(CO)CC2)cc1`, the TGI was over 100 µM.

System: ACHN renal
Assay: DTP human tumour cell line panel, 48 h

Compared with `CN(C)c1ccc(/C=C\C2=[N+](C)c3ccccc3C2(C)C)cc1`, `O=C1NC(=NCCc2cccc(F)c2)S/C1=C\c1ccc2ncccc2c1` is 5.8-fold higher in GI50: 1.75 µM for the first, 10.2 µM for the second.

Going from `CC(=O)OC1OC([C@@H]2c3cccc(O)c3C(=O)c3c(O)cc(C)cc32)C(O)C(O)C1O` (stereo not given in full) to `COc1cccc(-c2cc(-c3cccc(NS(C)(=O)=O)c3)nc(N)c2C#N)c1O`, the GI50 rises from 0.0319 µM to 0.846 µM (27-fold).

Compared with `COC(=O)/C=C1\S/C(=N\NC(=O)c2cc3ccc2/C=C\c2ccc(cc2)/C=C\3)N(c2ccccc2)C1=O`, `NC(N)=NS(=O)(=O)c1ccc(Nc2c3ccccc3nc3c(C(=O)NCCO)cccc23)cc1` is 11-fold higher in GI50: 1.78 µM for the first, 20 µM for the second.

Going from `COC([CH2][Hg][n]1cnc2c1c(=O)n(C)c(=O)n2C)CN1C(=O)c2ccccc2S1(=O)=O` (stereo not given) to `COc1cc2c(cc1OCCCCN1CCN(CC(=O)Nc3ccc(Cl)cc3C(=O)c3ccccc3Cl)CC1)N=CC1CCCN1C2=O` (stereo not given), the GI50 falls from over 100 µM to 0.431 µM.

Going from `CN1CCCCC1CCN1c2ccccc2Sc2ccc(Cl)cc21` (stereo not given) to `Cc1ccc(NC(=O)Nc2ccc(-c3cccnc3)cc2N2CCC(CO)CC2)cc1`, the GI50 rises from 3.3 µM to 6.68 µM (2-fold).

Going from `C=C(C)C(OC)C(O)CC1(C)CC(O)CC(C)(C2CCC3OC(C4(C)CCC(Br)C(C)(C)O4)CCC3(C)O2)O1` (stereo not given) to `COc1cc(/C=N\NC(=O)CN2CCN(c3cc4c(cc3F)c(=O)c(C(=O)N/N=C/c3cc(OC)c(OC)c(OC)c3)cn4C3CC3)CC2)cc(OC)c1OC`, the GI50 rises from 26.4 µM to over 100 µM.

Compared with `OC1CSSC1Cn1cnc2c(Nc3ccc(OCc4cccc(F)c4)c(Cl)c3)ncnc21` (stereo not given), `Nc1c(C(=O)c2cccc(CCS(N)(=O)=O)c2)cnn1-c1ccc(F)cc1` is higher in GI50: 1.7 µM for the first, over 25 µM for the second.

`CN(C)c1ccc(/C=C\C2=[N+](C)c3ccccc3C2(C)C)cc1` and `CN(C)C(=S)N=C(Nc1ccccc1)Nc1ccccc1` cannot be ordered by TGI: over 36.7 µM for the first, over 100 µM for the second.

`COc1cc2c(c3oc4c(O)cccc4c(=O)c13)CC(C(C)(O)CO)O2` (stereo not given) and `C=CCOc1ccc2c(C)cc(=O)oc2c1C` cannot be ordered by TGI: over 100 µM for the first, over 100 µM for the second.

Going from `CC(=O)OC1OC([C@@H]2c3cccc(O)c3C(=O)c3c(O)cc(C)cc32)C(O)C(O)C1O` (stereo not given in full) to `COc1cccc(C2c3cc4c(cc3OC(C)(N3CCCC3)C2C)OCO4)c1O` (stereo not given), the TGI rises from 0.282 µM to over 83.1 µM.

`C[N+](C)(C)CC(=O)N/N=C(/CC(=O)CC(C1=C(O)c2ccccc2OC1)c1ccccc1)C(=O)Nc1cccc(Cl)c1` (stereo not given) and `O=C(O)CCC(NC(=O)c1ccc(Nc2nc3ccccc3nc2-c2cccs2)cc1)C(=O)O` (stereo not given) cannot be ordered by TGI: over 100 µM for the first, over 100 µM for the second.

First: O=C1/C(=C/c2ccc(O)c(O)c2)CCC/C1=C\c1ccc(O)c(O)c1
Second: O=C1NC(=NCCc2cccc(F)c2)S/C1=C\c1ccc2ncccc2c1
The TGI of the first is lower: 11 µM for the first, over 25 µM for the second.

Going from `COC(=O)/C=C1\S/C(=N\NC(=O)c2cc3ccc2/C=C\c2ccc(cc2)/C=C\3)N(c2ccccc2)C1=O` to `COc1cc2c(cc1OCCCCN1CCN(CC(=O)Nc3ccc(Cl)cc3C(=O)c3ccccc3Cl)CC1)N=CC1CCCN1C2=O` (stereo not given), the TGI falls from 3.29 µM to 1.01 µM (3.3-fold).

`COC([CH2][Hg][n]1cnc2c1c(=O)n(C)c(=O)n2C)CN1C(=O)c2ccccc2S1(=O)=O` (stereo not given) and `COc1cccc(-c2cc(-c3cccc(NS(C)(=O)=O)c3)nc(N)c2C#N)c1O` cannot be ordered by TGI: over 100 µM for the first, over 100 µM for the second.

Compared with `CN1CCCCC1CCN1c2ccccc2Sc2ccc(Cl)cc21` (stereo not given), `Cc1ccc(NC(=O)Nc2ccc(-c3cccnc3)cc2N2CCC(CO)CC2)cc1` is higher in TGI: 12.9 µM for the first, over 100 µM for the second.

`C=C(C)C(OC)C(O)CC1(C)CC(O)CC(C)(C2CCC3OC(C4(C)CCC(Br)C(C)(C)O4)CCC3(C)O2)O1` (stereo not given) and `COc1cc(/C=N\NC(=O)CN2CCN(c3cc4c(cc3F)c(=O)c(C(=O)N/N=C/c3cc(OC)c(OC)c(OC)c3)cn4C3CC3)CC2)cc(OC)c1OC` cannot be ordered by TGI: over 57.4 µM for the first, over 100 µM for the second.

Going from `O=C(CCc1nc(=S)[nH][nH]1)Nc1ccc(Cl)c(Cl)c1` to `O=C(Nc1ccccc1)c1c(O)[nH]c(=S)[nH]c1=O`, the TGI falls from over 100 µM to 78.7 µM.

Compared with `OC1CSSC1Cn1cnc2c(Nc3ccc(OCc4cccc(F)c4)c(Cl)c3)ncnc21` (stereo not given), `Nc1c(C(=O)c2cccc(CCS(N)(=O)=O)c2)cnn1-c1ccc(F)cc1` is higher in TGI: 5.67 µM for the first, over 25 µM for the second.

Compared with `COc1cc2cc(OC)c3cc4c(cc3c2c(OC)c1OC)OCO4`, `Cc1ccsc1C(=S)Nc1ccc(Cl)c(/C=N/OC(C)(C)C)c1` is lower in TGI: over 100 µM for the first, 75.7 µM for the second.

Compared with `CCN(CC)CCSc1c2ccccc2nc2cc(NCC(=O)Nc3ccccc3-c3ccccc3NC(=O)CNc3ccc4c(SCCN(CC)CC)c5ccccc5nc4c3)ccc12`, `O=C(CCNC12CC3CC(CC(C3)C1)C2)c1ccccc1` is lower in TGI: over 100 µM for the first, 88.7 µM for the second.

With `NC(=O)NO.O.O.O.O.O.O.O.O.O.O.O.[Ge].[Ge].[Ge].[Ge].[Ge].[O]=[Ge].[O]=[Ge].[O]=[Ge].[O]=[Ge].[O]=[Ge][OH]` the TGI was over 100 µM.

With `CCCCCCCCCCCCCC(=O)OC(/C=C/C(C)C)C(O)C(O)C(OC)C(=O)NC1CCCCN(C)C1=O` (stereo not given) the TGI was 5.14 µM and > 49 µM.
With `C[C@@H](Oc1cc(-n2cnc3ccc(CN4CCN(C)CC4)cc32)sc1C(N)=O)c1ccccc1C(F)(F)F` the TGI was 15.8 µM and > 10 µM.

`C[C@@H](Oc1cc(-n2cnc3ccc(CN4CCN(C)CC4)cc32)sc1C(N)=O)c1ccccc1C(F)(F)F` was tested, and the GI50 was 0.442 µM and 0.156 µM.

System: HOP-92 NSCLC
Assay: DTP human tumour cell line panel, 48 h

In order of rising GI50:
1. CC(=O)OC1OC([C@@H]2c3cccc(O)c3C(=O)c3c(O)cc(C)cc32)C(O)C(O)C1O (stereo not given in full)  0.0233 µM
2. CN(C)c1ccc(/C=C\C2=[N+](C)c3ccccc3C2(C)C)cc1  0.89 µM
3. COC(=O)/C=C1\S/C(=N\NC(=O)c2cc3ccc2/C=C\c2ccc(cc2)/C=C\3)N(c2ccccc2)C1=O  1.91 µM

Going from `CN(C)c1ccc(/C=C\C2=[N+](C)c3ccccc3C2(C)C)cc1` to `COC(=O)/C=C1\S/C(=N\NC(=O)c2cc3ccc2/C=C\c2ccc(cc2)/C=C\3)N(c2ccccc2)C1=O`, the TGI falls from over 22.8 µM to 9.14 µM.

First: COc1cc2c(c3oc4c(O)cccc4c(=O)c13)CC(C(C)(O)CO)O2 (stereo not given)
Second: CC(=O)OC1OC([C@@H]2c3cccc(O)c3C(=O)c3c(O)cc(C)cc32)C(O)C(O)C1O (stereo not given in full)
The TGI of the first is higher: over 100 µM for the first, 0.0717 µM for the second.

Going from `C[N+](C)(C)CC(=O)N/N=C(/CC(=O)CC(C1=C(O)c2ccccc2OC1)c1ccccc1)C(=O)Nc1cccc(Cl)c1` (stereo not given) to `O=C1/C(=C/c2ccc(O)c(O)c2)CCC/C1=C\c1ccc(O)c(O)c1`, the TGI falls from over 100 µM to 13.2 µM.
